According to ChEMBL document CHEMBL1155710, “New bioactive sulfated metabolites from the Mediterranean tunicate Sidnyum turbinatum” (J Nat Prod, 2001):

Test system: WEHI-164
Experiment: Antiproliferative activity against mouse WEHI164 cells assessed as cell viability after 96 hrs by MTT assay
Format: functional, cell-based
Conditions: WEHI-164, 96 h

Structure (SMILES) | IC50 [µg/mL]
CCCCCCOS(=O)(=O)[O-].[Na+] [SODIUM HEXYL SULFATE] | 150
CC(C)CCCC(CCCC(C)CCCC(C)CCOS(=O)(=O)[O-])COS(=O)(=O)[O-].[Na+].[Na+] (stereo not given) | 300
CCCCCCCCCCCCCCCCCOS(=O)(=O)[O-].[Na+] [SODIUM HEPTADECYL SULFATE] | 400
CC(C)CCCC(CCCC(C)CCC[C@H](C)COS(=O)(=O)[O-])COS(=O)(=O)[O-].[Na+].[Na+] (stereo not given in full) | 230
CCCCCCCCCCCCCCCCCCOS(=O)(=O)[O-].[Na+] [SODIUM OCTADECYL SULFATE] | 410
